Patent publication US12661410B2, “Compounds for targeted degradation of RET” (C4 Therapeutics, Inc., priority 2020, dated 2026)
Substitutions are numbered along the chain they refer to. Like-named read-outs stand apart in the source and are kept apart here.

What was measured:
RET(KD: 658-1114 G810R) = molecular target: T1, RET(KD: 658-1114 G810R) (Homo sapiens, UniProt P07949, G810R); assay: HiBiT-Degradation, RET G810R degradation assay (Nano-Glo HiBiT Lytic), 293T.165 cells; type: cell-based; conditions: for Emax / DC50: 6.0 hours; for Emax: % remaining protein, read-out: 293T.165 RET(KD: 658-1114 G810R) 6.0 hours (Emax); for DC50: read-out: 293T.165 RET(KD: 658-1114 G810R) 6.0 hours (DC50)
T1 construct: 658-1114; expressed in transfected cells; host or cells: 293T.165 (293T cells, generated in-house)
T1 sequence (P07949 658-1114 G810R): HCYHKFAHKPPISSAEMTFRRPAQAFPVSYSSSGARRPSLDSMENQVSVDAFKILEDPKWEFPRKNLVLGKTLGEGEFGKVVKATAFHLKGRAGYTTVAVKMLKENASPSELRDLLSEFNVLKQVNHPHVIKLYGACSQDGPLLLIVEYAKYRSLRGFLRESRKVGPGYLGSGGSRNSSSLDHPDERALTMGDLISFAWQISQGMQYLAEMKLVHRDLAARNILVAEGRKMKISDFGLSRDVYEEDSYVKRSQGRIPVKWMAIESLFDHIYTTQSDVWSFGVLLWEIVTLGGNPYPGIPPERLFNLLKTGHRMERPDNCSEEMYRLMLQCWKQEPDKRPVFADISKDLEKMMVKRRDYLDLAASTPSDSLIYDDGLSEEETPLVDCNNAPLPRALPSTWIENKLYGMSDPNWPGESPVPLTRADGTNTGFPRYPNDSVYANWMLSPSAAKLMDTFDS
Procedure, shortened: (§1)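 6 h treatment, 293T.144 (WT) / 293T.165 (G810R) cells ectopically expressing HiBiT-fused RET KD; 11-pt half-log dilution, top 10 μM, n=2. Nano-Glo HiBiT lytic detection, luminescence. Output: DC50, Emax (% protein remaining).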

RET (658-1114) = molecular target: T2, RET (658-1114) (Homo sapiens, UniProt P07949); assay: HiBiT-Degradation, RET wild-type degradation assay (Nano-Glo HiBiT Lytic), 293T.144 cells; type: cell-based; conditions: for DC50 / Emax: 6.0 hours; for DC50: read-out: 293T.144 RET (658-1114) 6.0 hours (DC50); for Emax: read-out: 293T.144 RET (658-1114) 6.0 hours (Emax)
T2 construct: 658-1114; expressed in transfected cells; host or cells: 293T.144 (293T cells, generated in-house)
T2 sequence (P07949 658-1114): T1 sequence (P07949 658-1114 G810R) with R153G
Procedure, shortened: as §1

[1] = half-maximal degradation concentration

| SMILES | Emax (RET(KD: 658-1114 G810R)) | DC50 (RET(KD: 658-1114 G810R); [1]) | 293T.165 RET(KD: 658-1114 G810R) 6.0 hours (Emax) (RET(KD: 658-1114 G810R); HiBiT-Degradation) | 293T.165 RET(KD: 658-1114 G810R) 6.0 hours (IP) [nM] (RET(KD: 658-1114 G810R); HiBiT-Degradation) | DC50 (RET(KD: 658-1114 G810R); HiBiT-Degradation) | 293T.144 RET (658-1114) 6.0 hours (IP) [nM] (RET (658-1114); HiBiT-Degradation) | DC50 (RET (658-1114); HiBiT-Degradation) | Emax (RET (658-1114); HiBiT-Degradation) | 293T.165 RET(KD: 658-1114 G810R) 6.0 hours (IP) [nM] (RET(KD: 658-1114 G810R)) | 293T.144 RET (658-1114) 6.0 hours (IP) [nM] (RET (658-1114)) | Emax (RET (658-1114); % remaining protein) | DC50 (RET (658-1114); [1]) |
| --- | --- | --- | --- | --- | --- | --- | --- | --- | --- | --- | --- | --- |
| N#Cc1cnn2cc(-c3cnn([C@H]4CC[C@H](CCN5CCC(c6ccc(NC7CCC(=O)NC7=O)cc6F)CC5)CC4)c3)nc(-c3ccc(N4CCN(C(=O)Cc5ccc(F)cn5)CC4)nc3)c12 (stereo partly drawn) [Compound 60, 6-[1-[(1r,4r)-4-[2-[4-[4-[(2,6-dioxo-3-piperidyl)amino]-2-fluoro-phenyl]-1-piperidyl]ethyl]cyclohexyl]pyrazol-4-yl]-4-[6-[4-[2-(5-fluoro-2-pyridyl)acetyl]piperazin-1-yl]-3-pyridyl]pyrazolo[1,5-a]pyrazine-3-carbonitrile] | < 30% | < 50 nM | ++++ (< 30% = ++++) | ++++ (< 50 nM = ++++) | < 50 nM | ++++ (< 50 nM = ++++) | < 50 nM | < 30% |  |  |  |  |
| CCC1(NC(=O)c2ncccc2Cl)CCN(c2ccc(-c3nc(-c4cnn([C@H]5CC[C@@H](N6CCN(c7ccc8c(N9CCC(=O)NC9=O)nn(C)c8c7F)CC6)CC5)c4)cn4ncc(C#N)c34)cn2)CC1 (single isomer, unassigned) [Compound 170, 3-Chloro-N-(1-(5-(3-cyano-6-(1-((1s, 4s)-4-(4-(3-(2,4-dioxotetrahydropyrimidin-1(2H)-yl)-7-fluoro-1-methyl-1H-indazol-6-yl)piperazin-1-yl)cyclohexyl)-1H-pyrazol-4-yl)pyrazolo[1,5-a]pyrazin-4-yl)pyridin-2-yl)-4-ethylpiperidin-4-yl)picolinamide] | < 30% | < 100 nM |  |  |  |  |  |  | ++++ (<50 nM = ++++) | ++++ (<50 nM = ++++) | < 30% | < 50 nM |
| CCC1(C(=O)NC2CCC2)CCN(c2ccc(-c3cc(-c4cnn(C5CCN(C(=O)CN6CCC(c7ccc(NC8CCC(=O)NC8=O)cc7F)CC6)CC5)c4)cn4ncc(C#N)c34)cn2)CC1 (stereo not drawn) [Compound 8, 1-(5-(3-Cyano-6-(1-(1-(2-(4-(4-((2,6-dioxopiperidin-3-yl)amino)-2-fluorophenyl)piperidin-1-yl)acetyl)piperidin-4-yl)-1H-pyrazol-4-yl)pyrazolo[1,5-a]pyridin-4-yl)pyridin-2-yl)-N-cyclobutyl-4-ethylpiperidine-4-carboxamide] | < 30% | < 50 nM | ++++ (< 30% = ++++) | ++++ (< 50 nM = ++++) | < 50 nM | ++++ (< 50 nM = ++++) | < 50 nM | < 30% |  |  |  |  |
| CCC1(C(=O)NC(C)C)CCN(c2ccc(-c3nc(-c4cnn(C5CCN(C(=O)CC6(O)CCN(c7ccc(NC8CCC(=O)NC8=O)cc7F)CC6)CC5)c4)cn4ncc(C#N)c34)cc2)CC1 (stereo not drawn) [Compound 121, 1-(4-(3-Cyano-6-(1-(1-(2-(1-(4-((2,6-dioxopiperidin-3-yl)amino)-2-fluorophenyl)-4-hydroxypiperidin-4-yl)acetyl)piperidin-4-yl)-1H-pyrazol-4-yl)pyrazolo[1,5-a]pyrazin-4-yl)phenyl)-4-ethyl-N-isopropylpiperidine-4-carboxamide] | < 30% | < 50 nM |  |  |  |  |  |  | ++++ (<50 nM = ++++) | ++++ (<50 nM = ++++) | < 30% | < 50 nM |
| CCC1(C(=O)NC(C)C)CCN(c2ccc(-c3nc(-c4ccc(C5CCN(C(=O)CN6CC(c7ccc(NC8CCC(=O)NC8=O)cc7F)C6)CC5)cc4)cn4ncc(C#N)c34)cn2)CC1 (stereo not drawn) [Compound 174, 1-[5-[3-cyano-6-[4-[1-[2-[3-[4-[(2,6-dioxo-3-piperidyl)amino]-2-fluoro-phenyl]azetidin-1-yl]acetyl]-4-piperidyl]phenyl]pyrazolo[1,5-a]pyrazin-4-yl]-2-pyridyl]-4-ethyl-N-isopropyl-piperidine-4-carboxamide] | < 50% | < 100 nM |  |  |  |  |  |  | ++++ (<50 nM = ++++) | ++++ (<50 nM = ++++) | < 30% | < 50 nM |
| N#Cc1cnn2cc(-c3ccc(N4CCN(C(=O)CN5CCC(c6ccc(NC7CCC(=O)NC7=O)cc6F)CC5)CC4)cc3)nc(-c3ccc(N4CCN(C(=O)Cc5ccc(F)cn5)CC4)nc3)c12 (stereo not drawn) [Compound 52, 6-[4-[4-[2-[4-[4-[(2,6-dioxo-3-piperidyl)amino]-2-fluoro-phenyl]-1-piperidyl]acetyl]piperazin-1-yl]phenyl]-4-[6-[4-[2-(5-fluoro-2-pyridyl)acetyl]piperazin-1-yl]-3-pyridyl]pyrazolo[1,5-a]pyrazine-3-carbonitrile] | < 50% | < 100 nM | +++ (<50% = +++) | ++++ (< 50 nM = ++++) | < 100 nM | ++++ (< 50 nM = ++++) | < 50 nM | < 30% |  |  |  |  |
| N#Cc1cnn2cc(-c3cnn([C@H]4CC[C@H](N5CCC(c6ccc(N[C@H]7CCC(=O)NC7=O)cc6F)CC5)CC4)c3)nc(-c3ccc(N4CCC5(CC4)OCc4cccnc45)nc3)c12 (single isomer, unassigned) [Compound 179] | < 30% | < 50 nM |  |  |  |  |  |  | ++++ (<50 nM = ++++) | ++++ (<50 nM = ++++) | < 30% | < 50 nM |
| COc1ccc(CN2C3COCC2CN(c2ccc(-c4nc(-c5cnn([C@H]6CC[C@H](N7CCN(c8cc(OC)c(NC9CCC(=O)NC9=O)cc8F)CC7)CC6)c5)cn5ncc(C#N)c45)cn2)C3)cn1 (stereo partly drawn) [Compound 165, 6-[1-[4-[4-[4-[(2,6-dioxo-3-piperidyl)amino]-2-fluoro-5-methoxy-phenyl]piperazin-1-yl]cyclohexyl]pyrazol-4-yl]-4-[6-[9-[(6-methoxy-3-pyridyl)methyl]-3-oxa-7,9-diazabicyclo[3.3.1]nonan-7-yl]-3-pyridyl]pyrazolo[1,5-a]pyrazine-3-carbonitrile] | < 30% | < 100 nM |  |  |  |  |  |  | +++ (<100 nM = +++) | ++++ (<50 nM = ++++) | < 30% | < 50 nM |
| CCC1(C(=O)NC(C)C)CCN(c2ncc(-c3nc(-c4cnn(C5CCN(C(=O)CC6(O)CCN(c7ccc(NC8CCC(=O)NC8=O)cc7Cl)CC6)CC5)c4)cn4ncc(C#N)c34)cc2F)CC1 (stereo not drawn) [Compound 120, 1-[5-[6-[1-[1-[2-[1-[2-chloro-4-[(2,6-dioxo-3-piperidyl)amino]phenyl]-4-hydroxy-4-piperidyl]acetyl]-4-piperidyl]pyrazol-4-yl]-3-cyano-pyrazolo[1,5-a]pyrazin-4-yl]-3-fluoro-2-pyridyl]-4-ethyl-N-isopropyl-piperidine-4-carboxamide] | < 50% | < 100 nM |  |  |  |  |  |  | ++++ (<50 nM = ++++) | ++++ (<50 nM = ++++) | < 30% | < 50 nM |
| N#Cc1cnn2cc(-c3cnn(C4CCN(C(=O)CC5(O)CCN(c6ccc(NC7CCC(=O)NC7=O)cc6F)CC5)CC4)c3)nc(-c3ccc(N4CCC(O)(Cc5ccccc5)CC4)nc3)c12 (stereo not drawn) [Compound 117, 4-[6-(4-benzyl-4-hydroxy-1-piperidyl)-3-pyridyl]-6-[1-[1-[2-[1-[4-[(2,6-dioxo-3-piperidyl)amino]-2-fluoro-phenyl]-4-hydroxy-4-piperidyl]acetyl]-4-piperidyl]pyrazol-4-yl]pyrazolo[1,5-a]pyrazine-3-carbonitrile] | < 30% | < 50 nM |  |  |  |  |  |  | ++++ (<50 nM = ++++) | ++++ (<50 nM = ++++) | < 30% | < 50 nM |
